The source of these data is US10258602B2 (Ocera Therapeutics, Inc., priority 2007, dated 2019).

One data set deals with T1, CYP2C19 (Homo sapiens, UniProt P33261).
T1 construct: purchased BD Gentest, Becton-Dickinson (Supersomes); host or cells: insect cells
The data set is described as follows: Cytochrome P450 inhibition, CYP2C19. As to conditions: read-out: IC50 2C19. In kind it is in vitro ADME. The text has this: K. Assay for Cytochrome P450 Inhibition
Cytochrome P450 enzymes are implicated in the phase I metabolism of drugs. The majority of drug-drug interactions are metabolism-based and, moreover, these interactions typically involve inhibition of cytochrome P450s. Six CYP450 enzymes (CYP1A2, CYP2C8, CYP2C9, CYP2C19, CYP2D6 and CYP3A4) appear to be commonly responsible for the metabolism of most drugs and the associated drug-drug interactions. Assays to determine the binding of compounds of the invention to the various metabolically important isoforms of cytochrome P450 metabolizing enzymes are commercially available, for example NoAb BioDiscoveries (Mississaugua, ON, Canada) and Absorption Systems (Exton, Pa., USA). As well, a number of appropriate methods have been described or reviewed in the literature. (White, R. E. Ann. Rev. Pharmacol. Toxicol. 2000, 40, 133-157; Li, A. P. Drug. Disc. Today 2001, 6, 357-366; Turpeinen, M.; Korhonen, L. E. Tolonen, A.; et al. Eur. J. Pharm. Sci, 2006, 29, 130-138.)
The key aspects of the experimental method were as follows: • 1. […] Assays monitored, via fluorescence detection, the formation of a fluorescent metabolite following incubation of the microsomes with a specific CYP substrate. • 3. Compounds of the present invention were tested in duplicate samples at eight test concentrations using 3-fold serial dilutions (concentration range of 0.0457 to 100 μM). • 4. For each CYP-450 enzyme, a specific inhibitor was tested in duplicate at eight concentrations as a positive control. • 5. The concentration of the inhibitor or test compound that inhibited metabolite formation by 50% (IC50) was calculated by non-linear regression analysis of the % inhibition vs. log concentration (M) curve.

A further data set concerns Caco-2 cell layer. The data set is described as follows: Caco-2 permeability. As to conditions: for Papp A to B: Caco-2, apical to basolateral; for Papp A to B / Papp B to A: 10 μM, 60 min, 37° C.; for Papp B to A: Caco-2, basolateral to apical; for BtoA/AtoB: Caco-2 ratio of Papp B to A over A to B. Background: Caco-2 cells form a polarised layer with tight junctions and transporters.

The next data set concerns the target T2, hGHS-R1a (Homo sapiens, UniProt Q92847).
T2 construct: expressed in transfected cells
The data set is described as follows: Activation-desensitization profile, Ca2+ flux in HEK293 cells stably expressing hGHS-R1a. In kind it is cell-based. Conditions: higher positive = less desensitization potential. As to the method: M. Activation-Desensitization Profile
It is well-known that agonists of G-protein coupled receptors can induce desensitization or tachyphylaxis, thereby limiting the potential of agents acting at the receptor as therapeutics for chronic use.
• 1. […] Agonist-induced Ca^+2 fluxes were measured after loading with Ca^+2 indicator Fluo-4-AM. • 3. […] Results
(Calcium assays in cells follow changes in intracellular calcium, usually with a dye or a luminescent sensor.)

A short description of data set [1]: Plasma protein binding, rat plasma. In kind it is in vitro ADME. As to conditions: test concentration 5 μg/mL.
Data set [2] has as its system rat stomach fundus strips. Description: tissue or blood. As to conditions: read-out: EC50 values for contractility.
Description: Fundus strips (approximately 0.4×1 cm) were cut from the stomach of adult male Wistar rats parallel to the circular muscle fibers. They were placed between two platinum ring electrodes, 1 cm apart (Radnoti, ADInstruments, USA) in 10 ml tissue baths containing Krebs solution bubbled with 5% CO2 in O2 and maintained at 37° C. Tissues were suspended under 1.5 g resting tension. Changes of tension were measured isometrically with force transducers and recorded with a PowerLab 8/30 data acquisition system (ADInstruments, USA). Tissues were allowed to equilibrate for 60 min during which time bath solutions were changed every 15 min.
EFS was achieved by applying 0.5 ms pulses, 5 Hz frequency, at a maximally effective voltage of 70 V. EFS was applied for 30 sec at 3 min intervals for a 30 min initial period. This initial period was separated by a 5 min interval with wash out of the bath solution. Then, a second period of stimulation was started. […] Responses to the agents were measured and expressed as % of the mean of three or four pre-drug responses to EFS. All compounds were dissolved at 1 mM in distilled water or MeOH, as stock solutions.
Data set [3] has as its target GHS-R1a receptor (human ghrelin receptor) (Homo sapiens, UniProt Q92847). Description: Aequorin functional assay (ghrelin receptor), standard method B. In kind it is cell-based. From the text: B. Aequorin Functional Assay (Ghrelin Receptor)
See also U.S. patent application Ser. Nos. 11/149,512 and 11/149,731. (LePoul, E.; et al. J. Biomol. Screen. 2002, 7, 57-65; Bednarek, M. A.; et al. J. Med. Chem. 2000, 43, 4370-4376; Palucki, B. L.; et al. Bioorg. Med. Chem. Lett. 2001, 11, 1955-1957.) Functional activity at the gherlin receptor for representative compounds of the present invention is presented in the Examples.

The nature of data set [4]: Plasma protein binding, human plasma (equilibrium dialysis). Format: in vitro ADME. Conditions: test concentration 5 μg/mL. The method in brief:
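Human plasma incubated with test article at several concentrations for 60 min at 37° C. Bound and unbound fractions separated by equilibrium dialysis; unbound concentration quantified by LC-MS or LC-MS-MS.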
(In equilibrium dialysis only unbound substance equilibrates across the membrane.)

Some results are limits rather than exact numbers.

T1 sequence (P33261 whole entry): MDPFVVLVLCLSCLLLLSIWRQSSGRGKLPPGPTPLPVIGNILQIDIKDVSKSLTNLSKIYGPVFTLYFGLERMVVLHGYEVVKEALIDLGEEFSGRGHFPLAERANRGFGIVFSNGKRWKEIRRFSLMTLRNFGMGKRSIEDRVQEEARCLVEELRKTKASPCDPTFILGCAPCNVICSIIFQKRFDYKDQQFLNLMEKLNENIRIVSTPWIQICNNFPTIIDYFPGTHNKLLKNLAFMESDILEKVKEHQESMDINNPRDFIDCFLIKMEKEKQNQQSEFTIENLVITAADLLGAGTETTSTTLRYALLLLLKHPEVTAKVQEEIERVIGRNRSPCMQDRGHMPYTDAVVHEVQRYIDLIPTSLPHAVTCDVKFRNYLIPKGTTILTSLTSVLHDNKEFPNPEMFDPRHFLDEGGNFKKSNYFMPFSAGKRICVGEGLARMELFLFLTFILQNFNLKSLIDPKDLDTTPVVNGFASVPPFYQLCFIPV
T2 sequence (Q92847 whole entry): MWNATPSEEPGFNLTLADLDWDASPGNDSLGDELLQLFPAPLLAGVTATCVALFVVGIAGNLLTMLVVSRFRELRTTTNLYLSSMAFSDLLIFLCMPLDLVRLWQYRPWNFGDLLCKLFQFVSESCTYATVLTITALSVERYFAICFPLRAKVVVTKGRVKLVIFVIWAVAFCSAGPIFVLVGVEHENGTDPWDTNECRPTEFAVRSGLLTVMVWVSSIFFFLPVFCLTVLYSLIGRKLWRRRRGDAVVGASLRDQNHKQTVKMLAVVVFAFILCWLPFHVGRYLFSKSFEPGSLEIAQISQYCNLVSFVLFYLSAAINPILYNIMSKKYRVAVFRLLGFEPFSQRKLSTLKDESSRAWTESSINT
Sequence of GHS-R1a receptor (human ghrelin receptor) (Q92847 whole entry): as above
Description for Caco-2 cell layer: L. Determination of Caco-2 Permeability
Fully differentiated cell monolayers can be used to assess the membrane transport properties of novel compounds.
Permeability across the Caco-2 cell layer was determined by growing the cells on a membrane placed between two (donor and acceptor) chambers. […] Permeability in this direction represents intestinal absorption. Permeability may also be determined from the basolateral to the apical side of the Caco-2 cell. A higher apical to basolateral Papp, compared to the basolateral to apical Papp, is indicative of carrier-mediated transport.
Permeability (10 μM) for compounds of the invention in the apical to basolateral and basolateral to apical direction were tested in duplicate. Samples will be collected from the donor and acceptor chambers at the beginning (0 min) and following 60 min of incubation at 37° C. and stored frozen at −70° C. until bioanalysis. Samples for each test compound generated from the Caco-2 permeability assay were further analyzed by LC-MS-MS. The permeability of [^3H]-mannitol and [^3H]-propranolol were determined in parallel as controls.
The permeability coefficient (Papp) of each compound and radiolabeled standard was determined using the following equation:
where dQ/dT represents the permeability rate, Ci denotes the initial concentration in the donor compartment, and A represents the surface area of the filter. Ci is determined from the mean concentration of duplicate samples taken prior to addition to the donor compartment. Permeability rates were calculated by plotting the cumulative amount of compound measured in the acceptor compartment over time and determining the slope of the line by linear regression analysis. The duplicate and mean apical to basolateral and basolateral to apical Papp's were reported for each compound and standard.

As a reminder, the IC50 is the midpoint of a concentration-inhibition curve. As for `CC(C)CC1NC(=O)C(C)N(C)C(=O)C(C2CC2)NCC(C)OC2CCCCC2CCCNC1=O` (mixture of isomers) [Compound 825], the IC50 at CYP2C19 was over 100 µM. For the same molecule, in the data set on Caco-2 cell layer, the “Papp A to B” value came out at 113 cm/sec × 10^−6, the “Papp B to A” value is 123 cm/sec × 10^−6 and the BtoA/AtoB is 1.08.

Regarding `CC1CNC(C2CC2)C(=O)N(C)C(C)C(=O)NC(Cc2ccc(O)cc2)C(=O)NCCCC2CCCCC2O1` (mixture of isomers) [Compound 826], the IC50 at CYP2C19 was over 100 µM. At hGHS-R1a, the “Δ(activity-desensitization) (pEC50 − pDC50)” value turned out to be 1.90. Moreover, in the data set with Caco-2 cell layer, the “Papp A to B” value is reported as 11.2 cm/sec × 10^−6, the “Papp B to A” value was determined as 46.9 cm/sec × 10^−6 and the BtoA/AtoB was 4.18.

With `CC(C)CC1NC(=O)C(C)N(C)C(=O)C(C2CCCCC2)NCC(C)OC2CCCCC2CCCNC1=O` (mixture of isomers) [Compound 828], the IC50 on CYP2C19 was over 100 µM.

Consider `C[C@@H]1C(=O)N[C@H](Cc2ccc(O)cc2)C(=O)NCCCc2cccc3c2O[C@H](CC3)CN[C@@H](C2CC2)C(=O)N1C` [Compound 803], for which the IC50 on CYP2C19 is over 100 µM. For the same molecule, in the data set on Caco-2 cell layer, the “Papp A to B” value turned out to be 12.1 cm/sec × 10^−6, the “Papp B to A” value is 67.3 cm/sec × 10^−6 and the BtoA/AtoB is listed as 5.59.

Usually fraction unbound stands for the share of the substance not bound to proteins or other matrix. High values mean weak binding, low ones extensive binding. The term EC50 denotes the midpoint of the concentration-response curve. Consider `CC(C)C[C@H]1NC(=O)[C@@H](C)N(C)C(=O)[C@H](C2CC2)NC[C@@H](C)Oc2ccccc2CC[C@H](C)NC1=O` [Compound 807], for which the unbound share (fraction unbound) at 60 min, 5 μg/mL is 0.16 in data set [1] and 0.007 in data set [4]. In addition, the IC50 on CYP2C19 is over 100 µM. Besides, the “Δ(activity-desensitization) (pEC50 − pDC50)” value on hGHS-R1a is reported as 3.08. Besides, the EC50 in data set [2] was 0.15 µM; in data set [3] it was at most 0.05 µM.

Consider `C[C@@H]1C(=O)N[C@H](Cc2ccc(O)cc2)C(=O)NCCCc2ccc(F)cc2OCCN[C@@H](C2CC2)C(=O)N1C` [Compound 809], for which, on CYP2C19, the IC50 is over 100 µM.

For `CC(C)C[C@H]1NC(=O)[C@@H](C)N(C)C(=O)[C@H](C2CC2)NCCOc2cc(F)ccc2CCCNC1=O` [Compound 810], the IC50 on CYP2C19 was over 100 µM.

Consider `CC1NC(C2CC2)C(=O)N(C)C(C)C(=O)NC(Cc2ccc(O)cc2)C(=O)NCCCc2ccccc2OC1C` (stereo not drawn) [Compound 820], for which the IC50 at CYP2C19 is over 100 µM.

Turning to `CC(C)C[C@H]1NC(=O)[C@@H](C)N(C)C(=O)[C@H](C2CC2)NCCOc2cc(F)ccc2CC[C@H](C)NC1=O` [Compound 822], the IC50 at CYP2C19 was over 100 µM.
